{"source": "patent EP0951284B1", "about": "“[…] DERIVATIVES” (priority 1996, dated 1998)", "key": {"[1]": {"molecular_target": "T1, whole brain AChE (Mus musculus, UniProt P21836)", "T1 construct": "the brains rapidly removed (minus cerebellum), weighed and homogenized in 0.1M phosphate buffer pH 8.0; from tissue; host or cells: mouse brain (minus cerebellum) homogenate supernatant", "T1 sequence (P21836 32-614)": "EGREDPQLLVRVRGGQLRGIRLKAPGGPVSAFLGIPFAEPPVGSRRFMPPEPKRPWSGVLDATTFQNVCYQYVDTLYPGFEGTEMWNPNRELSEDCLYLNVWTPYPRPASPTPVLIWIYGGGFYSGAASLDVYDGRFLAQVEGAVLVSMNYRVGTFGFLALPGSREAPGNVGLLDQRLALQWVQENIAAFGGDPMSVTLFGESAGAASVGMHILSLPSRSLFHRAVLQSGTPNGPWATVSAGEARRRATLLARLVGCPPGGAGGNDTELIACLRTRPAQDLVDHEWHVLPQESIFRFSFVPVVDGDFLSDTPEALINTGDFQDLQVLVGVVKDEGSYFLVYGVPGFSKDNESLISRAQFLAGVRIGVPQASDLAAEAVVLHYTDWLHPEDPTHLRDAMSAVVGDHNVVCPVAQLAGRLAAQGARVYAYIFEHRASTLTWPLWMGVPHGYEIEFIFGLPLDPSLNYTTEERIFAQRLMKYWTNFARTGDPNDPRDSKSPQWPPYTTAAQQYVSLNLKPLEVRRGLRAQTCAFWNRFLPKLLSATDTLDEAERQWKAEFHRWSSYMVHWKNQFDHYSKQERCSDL", "test": "Ex vivo measurement of brain AChE inhibition after sub-cutaneous administration", "assay_type": "in vivo, mice", "conditions": "for Time to peak activity t / Time to return to 50% of peak t: AChE inhibition; for ED50: sc, sub-cutaneous, mouse whole brain, at peak of activity, read-out: AChE Inhibition Ex vivo ED50 (AC)", "protocol": "Test drugs or saline were administered sub-cutaneously to male mice (Sabra strain, 28-35g). At least 4-5 mice were used per dose and a minimum of 3 doses per drug were tested. The mice were sacrificed 15, 30, 60, 70, 90, 120 or 180 minutes after drug administration, the brains rapidly removed (minus cerebellum), weighed and homogenized in 0.1M phosphate buffer pH 8.0, containing Triton (1mg/100g tissue) and centrifuged to remove cell debris. Aliquots (25 µl) of the supernatant were then incubated with acetylthiocholine and DTNB. AChE activity measured as described above. The % inhibition of whole brain AChE by each dose of drug was calculated by comparison with enzyme activity from 3 saline treated control mice run at the same time."}, "[2]": {"test_system": "mice", "test": "Closed head injury (CHI) in mice: motor function, neurological severity score (NSS)", "assay_type": "in vivo", "conditions": "sc at ED50 for acetylcholinesterase inhibition, once 15 min after CHI", "protocol": "The procedure for closed head injury followed was as described for rats in Shohami et al. (J. Neurotrauma (1993) 10(2) 109-119) with changes as described.\nAnimals: Male Sabra mice (Hebrew University strain) weighing 34-40g were used. They were housed in groups of 10 per cage, in a 12hr:12hr light:dark cycle. Food and water were provided ad libitum.\nTrauma was induced under ether anesthesia. A longitudinal incision was performed in the skin covering the skull and the skin retracted to expose the skull. The head was fixed manually at the lower plane of the impact apparatus. A weight of 333g was delivered by an electric device from a height of 3cm to the left hemisphere, 1-2mm lateral to the midline in the midcoronal plane.\nOne point was awarded for the lack of a tested reflex or for the inability to perform the tasks outline in the Table. The maximal score that can be reached at 1 hour post-CHI is 25 points and 21 at later times. The difference in NSS at 1hr and at any other time reflects the recovery, and is referred to as NSS. An NSS score of 15-19 at 1hr denotes severe injury, 11-14 moderate injury and less than 10 mild injury."}, "[3]": {"molecular_target": "T2, MAO-A (Rattus norvegicus, UniProt P21396)", "T2 sequence (P21396 1-526)": "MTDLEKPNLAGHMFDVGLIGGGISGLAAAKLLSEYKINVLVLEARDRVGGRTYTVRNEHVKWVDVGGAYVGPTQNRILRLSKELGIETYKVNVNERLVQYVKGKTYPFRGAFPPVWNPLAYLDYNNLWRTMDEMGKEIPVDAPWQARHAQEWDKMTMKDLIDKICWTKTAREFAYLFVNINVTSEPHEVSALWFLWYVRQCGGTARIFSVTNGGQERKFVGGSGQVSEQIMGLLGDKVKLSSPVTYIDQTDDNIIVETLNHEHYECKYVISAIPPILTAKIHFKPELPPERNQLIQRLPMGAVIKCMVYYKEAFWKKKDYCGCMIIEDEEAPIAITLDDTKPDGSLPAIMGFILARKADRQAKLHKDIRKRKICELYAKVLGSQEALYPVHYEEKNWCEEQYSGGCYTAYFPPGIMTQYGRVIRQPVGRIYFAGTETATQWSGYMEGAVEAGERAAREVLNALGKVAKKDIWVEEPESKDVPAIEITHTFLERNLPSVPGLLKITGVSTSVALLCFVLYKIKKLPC", "test": "Inhibition of MAO activity following sub-acute (14 days) administration to rats, MAO-A", "assay_type": "in vivo", "parameters": "from tissue; host or cells: brain, liver and intestine of Sprague Dawley rats", "conditions": "20mg/kg daily for 14 days", "protocol": "Male Sabra mice, weighing 45-50g were injected with test compound solutions (prepared in 0.9% saline). Each dose was administered to two or three mice. The mice were sacrificed two hours after drug administration or at a time corresponding to the peak AChE inhibition time (see Table 6). The brain and liver were rapidly dissected and stored in appropriate vials on ice. The tissues were weighed, diluted to 1/20 in sucrose 0.3M and stored at -20°C before performance of the MAO assay described above. The results given in Table 6 relate to measurements made on brain tissue only.\nExperiments were done with Spague Dawley male rats. Procedures were repeated as described in Examples 2.1 and 2.2, but drug administration was continued daily for 14 days. At the end of this period animals were sacrificed and MAO levels determined in the brain, liver and intestines. Compound 17 was administered sub-cutaneously or per os at a dose of 20mg/kg."}}, "note": "Counter-ions that a name gives are not always drawn."}
{"molecule": "C#CCNCCc1cccc(OC(=O)N(C)C)c1", "note": "[Compound 11]", "values": [{"measurement": "Time to peak activity t", "setting": "[1]", "value": 15, "unit": "min"}, {"measurement": "Time to return to 50% of peak t", "setting": "[1]", "value": 70, "unit": "min"}, {"measurement": "ED50", "setting": "[1]", "value": 3.2, "unit": "µmol/kg"}]}
{"molecule": "C#CCNC(C)Cc1cccc(OC(=O)N(C)C)c1", "note": "(stereo not drawn) [Compound 16]", "values": [{"measurement": "Time to peak activity t", "setting": "[1]", "value": 15, "unit": "min"}, {"measurement": "Time to return to 50% of peak t", "setting": "[1]", "value": 70, "unit": "min"}, {"measurement": "ED50", "setting": "[1]", "value": 2.3, "unit": "µmol/kg"}]}
{"molecule": "C#CCNC(C)Cc1cccc(OC(=O)N(C)CC)c1", "note": "(stereo not drawn) [Compound 17, 3-(N-Me,N-Etcarbamyloxy)α-methyl, N-propargyl phenethylamine.HCl]", "values": [{"measurement": "Time to peak activity t", "setting": "[1]", "value": "30 to 60", "unit": "min"}, {"measurement": "Time to return to 50% of peak t", "setting": "[1]", "value": 120, "unit": "min"}, {"measurement": "ED50", "setting": "[1]", "value": 64, "unit": "µmol/kg"}, {"measurement": "ΔNSS, 24 hr post-CHI", "setting": "[2]; saline 4.75±0.17", "value": "5.58±0.38"}, {"measurement": "ΔNSS, 7 days post-CHI", "setting": "[2]; saline 5.83±0.36", "value": "6.92±0.36"}, {"measurement": "ΔNSS, 14 days post-CHI", "setting": "[2]; saline 5.96±0.4", "value": "7.83±0.53"}, {"measurement": "inhibition at 20 mg/kg", "setting": "[3]; po, Brain", "value": 59, "unit": "%"}, {"measurement": "inhibition at 20 mg/kg", "setting": "[3]; po, Intestine", "value": 25, "unit": "%"}, {"measurement": "inhibition at 20 mg/kg", "setting": "[3]; po, Liver", "value": 59, "unit": "%"}, {"measurement": "inhibition at 20 mg/kg", "setting": "[3]; sc, Brain", "value": 76, "unit": "%"}, {"measurement": "inhibition at 20 mg/kg", "setting": "[3]; sc, Intestine", "value": 10, "unit": "%"}, {"measurement": "inhibition at 20 mg/kg", "setting": "[3]; sc, Liver", "value": 33, "unit": "%"}]}
{"molecule": "C#CCN(C)CCc1cccc(OC(=O)N(C)C)c1", "note": "[Compound 12]", "values": [{"measurement": "Time to peak activity t", "setting": "[1]", "value": "15 to 30", "unit": "min"}, {"measurement": "Time to return to 50% of peak t", "setting": "[1]", "value": 120, "unit": "min"}, {"measurement": "ED50", "setting": "[1]", "value": 2.8, "unit": "µmol/kg"}]}
